Pest or weed control data for 19 compounds are collected here from patent US20250228239A1, “MOLECULES HAVING PESTICIDAL UTILITY, AND INTERMEDIATES, COMPOSITIONS, AND PROCESSES, RELATED THERETO” (priority 2024, published 2025).

Test [1] deals with Cabbage Looper (Trichoplusia ni, TRIPNI). Kind of test: Bioassays on Cabbage Looper (CL), 128-well diet tray assay. The test is classed as in vivo. The conditions noted are these: Trichoplusia ni. In short, it runs like this:
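Test molecule was dissolved in 90:10 acetone-water, applied to artificial diet at 50 μg/cm^2 and allowed to dry. Second-instar larvae were then added, one to five per well, and trays held at 25° C for five to seven days before mortality was scored and averaged.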

Test [2] has as its system Beet Armyworm (Spodoptera exigua, LAPHEG). Kind of test: Bioassays on Beet Armyworm (BAW), 128-well diet tray assay. Type of test: in vivo. The conditions noted are these: Spodoptera exigua. In short, it runs like this: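 Second-instar larvae, one to five per well, were placed on artificial diet surface-treated with 50 μg/cm^2 compound in 90:10 acetone-water, eight wells per treatment. Trays were held 5–7 days at 25 °C, 14:10 light-dark. Percent mortality per well was averaged over eight wells.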

Where [3] appears, read: Table ABC: Biological Results, species CL, read-out: CL.
Where [4] appears, read: Table ABC: Biological Results, species BAW, read-out: BAW.
The mark [5] stands for this setting: Cabbage Looper, Table ABC / ABC-DP rating, read-out: CL rating.
[6] abbreviates: Beet Armyworm, Table ABC / ABC-DP rating, read-out: BAW rating.
Where [7] appears, read: Cabbage Looper, rating class, read-out: CL.
Where [8] appears, read: Beet Armyworm, rating class, read-out: BAW.

Where two headings read alike, the source gives them in different places.

For `O=C(Nc1c(F)ccc(NC(=O)C(F)F)c1F)c1cc(NC(=O)[C@H]2[C@H](c3cc(Cl)c(Cl)c(Cl)c3)C2(Cl)Cl)cc(F)c1Cl` [F1343, 2-Chloro-5-((1R,3R)-2,2-dichloro-3-(3,4,5-trichlorophenyl)cyclopropane-1-carboxamido)-N-(3-(2,2-difluoroacetamido)-2,6-difluorophenyl)-3-fluorobenzamide], the pest or weed control at 50 µg/cm2 in test [1] (setting [3]) and in test [2] (setting [4]) was 50 to 100% throughout.
Take `C=C(F)C(=O)Nc1c(F)ccc(NC(=O)c2cc(NC(=O)[C@H]3[C@H](c4ccc(Cl)c(Cl)c4)C3(Cl)Cl)ccc2Cl)c1F` [F1871, 2-Chloro-5-((1R,3R)-2,2-dichloro-3-(3,4-dichlorophenyl)cyclopropane-1-carboxamido)-N-(2,4-difluoro-3-(2-fluoroacrylamido)phenyl)benzamide]: the pest or weed control at 50 µg/cm2 in test [1] (setting [5]) and in test [2] (setting [6]) was 50 to 100% each time.
On to `O=C(Nc1c(F)ccc(NC(=O)c2cc(NC(=O)[C@H]3[C@H](c4ccc(F)c(C(F)(F)F)c4)C3(Cl)Cl)ccc2Cl)c1F)c1cccnc1` [F1206, N-(3-(2-Chloro-5-((1R,3R)-2,2-dichloro-3-(4-fluoro-3-(trifluoromethyl)phenyl)cyclopropane-1-carboxamido)benzamido)-2,6-difluorophenyl)nicotinamide], for which the pest or weed control at 50 µg/cm2 in test [1] (setting [3]) and in test [2] (setting [4]) was 50 to 100% in each case.
`CC(=O)Nc1ccc(NC(=O)c2cc(NC(=O)[C@H]3[C@H](c4ccc(F)c(Cl)c4)C3(Cl)Cl)cc(Cl)c2F)cc1` (relative stereo) [F1197, trans-N-(4-Acetamidophenyl)-3-chloro-5-(2,2-dichloro-3-(3-chloro-4-fluorophenyl)cyclopropane-1-carboxamido)-2-fluorobenzamide]: the pest or weed control at 50 µg/cm2 in test [1] (setting [3]) and in test [2] (setting [4]) was 50 to 100% in each case.
Regarding `O=C(NCC(F)(F)F)c1cc(NC(=O)[C@H]2[C@H](c3ccc(F)c(Cl)c3)C2(Cl)Cl)cc(F)c1F` (relative stereo) [F2049, trans-5-(2,2-Dichloro-3-(3-chloro-4-fluorophenyl)cyclopropane-1-carboxamido)-2,3-difluoro-N-(2,2,2-trifluoroethyl)benzamide], the pest or weed control at 50 µg/cm2 in test [1] (setting [5]) and in test [2] (setting [6]) was 50 to 100% each time.
For the compound `N#CC1(C(=O)Nc2c(F)ccc(NC(=O)c3cc(NC(=O)[C@H]4[C@H](c5ccc(Cl)c(Cl)c5)C4(Cl)Cl)ccc3Cl)c2F)CC1` [F1609, 2-Chloro-N-(3-(1-cyanocyclopropane-1-carboxamido)-2,4-difluorophenyl)-5-((1R,3R)-2,2-dichloro-3-(3,4-dichlorophenyl)cyclopropane-1-carboxamido)benzamide], the pest or weed control at 50 µg/cm2 in test [1] (setting [7]) and in test [2] (setting [8]) was 50 to 100% in each case.
`CN(NC(=O)c1cc(NC(=O)[C@H]2[C@H](c3cc(Cl)cc(Cl)c3)C2(Cl)Cl)ccc1Cl)C(=O)C(F)(F)F` (relative stereo) [F2523, trans-2,2-Dichloro-N-(4-chloro-3-(2-methyl-2-(2,2,2-trifluoroacetyl)hydrazine-1-carbonyl)phenyl)-3-(3,5-dichlorophenyl)cyclopropane-1-carboxamide]: the pest or weed control at 50 µg/cm2 in test [1] (setting [5]) and in test [2] (setting [6]) was 50 to 100% throughout.
Turning to `Nc1c(F)ccc(NC(=O)c2cc(NC(=O)[C@H]3[C@H](c4ccc(F)c(I)c4)C3(Cl)Cl)ccc2Cl)c1F` (relative stereo) [F1622, trans-N-(3-Amino-2,4-difluorophenyl)-2-chloro-5-(2,2-dichloro-3-(4-fluoro-3-iodophenyl)cyclopropane-1-carboxamido)benzamide], the pest or weed control at 50 µg/cm2 in test [1] (setting [7]) and in test [2] (setting [8]) was 50 to 100% each time.
In the case of `Nc1c(F)ccc(NC(=O)c2cc(NC(=O)[C@H]3[C@@H](c4cc(Cl)cc(S(F)(F)(F)(F)F)c4)C3(Cl)Cl)ccc2Cl)c1F` (relative stereo) [F1260, cis-N-(3-Amino-2,4-difluorophenyl)-2-chloro-5-(2,2-dichloro-3-(3-chloro-5-(pentafluoro-λ^6-sulfanyl)phenyl)cyclopropane-1-carboxamido)benzamide], the pest or weed control at 50 µg/cm2 in test [1] (setting [3]) and in test [2] (setting [4]) was 50 to 100% throughout.
With `CC(=O)Nc1c(F)ccc(NC(=O)c2cc(NC(=O)[C@H]3[C@H](c4cc(Cl)c(Cl)c(Cl)c4)C3(Cl)Cl)cc(C)c2Cl)c1F` [F1544, N-(3-Acetamido-2,4-difluorophenyl)-2-chloro-5-((1R,3R)-2,2-dichloro-3-(3,4,5-trichlorophenyl)cyclopropane-1-carboxamido)-3-methylbenzamide], the pest or weed control at 50 µg/cm2 in test [1] (setting [7]) and in test [2] (setting [8]) was 50 to 100% in each case.
Consider `O=C(NCC(F)(F)F)c1cc(NC(=O)[C@H]2[C@H](c3ccc(F)c(Cl)c3)C2(Cl)Cl)cc(F)c1Cl` (relative stereo) [F2034, trans-2-Chloro-5-(2,2-dichloro-3-(3-chloro-4-fluorophenyl)cyclopropane-1-carboxamido)-3-fluoro-N-(2,2,2-trifluoroethyl)benzamide], for which the pest or weed control at 50 µg/cm2 in test [1] (setting [5]) and in test [2] (setting [6]) was 50 to 100% throughout.
On to `O=C(Nc1cc(NC(=O)C(F)F)c(F)cc1F)c1cc(NC(=O)[C@H]2[C@H](c3ccc(F)c(C(F)(F)F)c3)C2(Cl)Cl)cc(F)c1F` [F1586, 5-((1R,3R)-2,2-Dichloro-3-(4-fluoro-3-(trifluoromethyl)phenyl)cyclopropane-1-carboxamido)-N-(5-(2,2-difluoroacetamido)-2,4-difluorophenyl)-2,3-difluorobenzamide], for which the pest or weed control at 50 µg/cm2 in test [1] (setting [7]) and in test [2] (setting [8]) was 50 to 100% each time.
Take `CCC(=O)Nc1c(F)ccc(NC(=O)c2cc(NC(=O)[C@H]3[C@H](c4ccc(F)c(Br)c4)C3(Cl)Cl)ccc2Cl)c1F` [F1717, 5-((1R,3R)-3-(3-Bromo-4-fluorophenyl)-2,2-dichlorocyclopropane-1-carboxamido)-2-chloro-N-(2,4-difluoro-3-propionamidophenyl)benzamide]: the pest or weed control at 50 µg/cm2 in test [1] (setting [7]) and in test [2] (setting [8]) was 50 to 100% throughout.
With `O=C(Nc1ccc(F)c(NC(=O)C2(F)OC(F)(F)C(F)(F)C(F)(F)C2(F)F)c1F)c1cc(NC(=O)[C@H]2[C@H](c3ccc(F)c(C(F)(F)F)c3)C2(Cl)Cl)ccc1Cl` (stereo partly drawn) [F1783, N-(3-(2-Chloro-5-((1R,3R)-2,2-dichloro-3-(4-fluoro-3-(trifluoromethyl)phenyl)cyclopropane-1-carboxamido)benzamido)-2,6-difluorophenyl)-2,3,3,4,4,5,5,6,6-nonafluorotetrahydro-2H-pyran-2-carboxamide], the pest or weed control at 50 µg/cm2 in test [1] (setting [5]) and in test [2] (setting [6]) was 50 to 100% each time.
On to `C#CCN(C(=O)COC(F)(F)F)c1c(F)ccc(NC(=O)c2cc(NC(=O)[C@H]3[C@H](c4ccc(F)c(C(F)(F)F)c4)C3(Cl)Cl)ccc2Cl)c1F` [F1811, 2-Chloro-5-((1R,3R)-2,2-dichloro-3-(4-fluoro-3-(trifluoromethyl)phenyl)cyclopropane-1-carboxamido)-N-(2,4-difluoro-3-(N-(prop-2-yn-1-yl)-2-(trifluoromethoxy)acetamido)phenyl)benzamide], for which the pest or weed control at 50 µg/cm2 in test [1] (setting [5]) and in test [2] (setting [6]) was 50 to 100% throughout.
Turning to `O=C(Nc1ccc(F)cc1)c1cc(NC(=O)[C@H]2[C@H](c3ccc(F)c(Cl)c3)C2(Cl)Cl)cc(F)c1F` (relative stereo) [F1208, trans-5-(2,2-Dichloro-3-(3-chloro-4-fluorophenyl)cyclopropane-1-carboxamido)-2,3-difluoro-N-(4-fluorophenyl)benzamide], the pest or weed control at 50 µg/cm2 in test [1] (setting [3]) and in test [2] (setting [4]) was 50 to 100% each time.
In the case of `O=C(Nc1ccc(F)c(NC(=O)C(F)(F)C(F)(F)OC(F)(F)F)c1F)c1cc(NC(=O)[C@H]2[C@H](c3ccc(F)c(C(F)(F)F)c3)C2(Cl)Cl)ccc1Cl` [F1834, 2-Chloro-5-((1R,3R)-2,2-dichloro-3-(4-fluoro-3-(trifluoromethyl)phenyl)cyclopropane-1-carboxamido)-N-(2,4-difluoro-3-(2,2,3,3-tetrafluoro-3-(trifluoromethoxy)propanamido)phenyl)benzamide], the pest or weed control at 50 µg/cm2 in test [1] (setting [5]) and in test [2] (setting [6]) was 50 to 100% each time.
In the case of `CC(OC(F)(F)F)C(=O)Nc1c(F)ccc(NC(=O)c2cc(NC(=O)[C@H]3[C@H](c4cc(F)cc(C(F)(F)F)c4)C3(Cl)Cl)ccc2Cl)c1F` (stereo partly drawn) [F1773, 2-Chloro-5-((1R,3R)-2,2-dichloro-3-(3-fluoro-5-(trifluoromethyl)phenyl)cyclopropane-1-carboxamido)-N-(2,4-difluoro-3-(2-(trifluoromethoxy)propanamido)phenyl)benzamide], the pest or weed control at 50 µg/cm2 in test [1] (setting [5]) and in test [2] (setting [6]) was 50 to 100% each time.
Take `O=C(Nc1c(F)ccc(NC(=O)c2cc(NC(=O)[C@H]3[C@H](c4cc(Cl)c(Cl)c(Cl)c4)C3(Cl)Cl)ccc2Cl)c1F)c1ccco1` [F1648, N-(3-(2-Chloro-5-((1R,3R)-2,2-dichloro-3-(3,4,5-trichlorophenyl)cyclopropane-1-carboxamido)benzamido)-2,6-difluorophenyl)furan-2-carboxamide]: the pest or weed control at 50 µg/cm2 in test [1] (setting [7]) and in test [2] (setting [8]) was 50 to 100% throughout.
